Reference: article PMC5270246, “Identification of a novel selective PPARγ ligand with a unique binding mode and improved therapeutic profile in vitro” (Scientific Reports, 2017)

How the values were obtained:
[1] = tested on: 3T3-L1 cells; test: Adipocyte differentiation assay, Oil Red O staining; details: for adipocyte differentiation (Oil-red O staining) / % Oil Red staining: 1 μM; for % Oil Red staining: differentiated 3T3-L1 cells, ImageJ analysis
[2] = tested on: 3T3-L1 cells; details: after 7 days; for expression of key adipogenic genes (C/EBPα, aP2, CD36, FASN, LPL, PPARγ), mRNA: normalized to β-actin
[3] = target: T1, GST-PPARγ LBD (Homo sapiens, UniProt P37231); test: LanthaScreen TR-FRET competition binding assay
T1 construct: The GST-PPARγ LBD was labeled with a terbium-linked antibody; purchased Invitrogen
T1 sequence (P37231 238-503 limits assumed): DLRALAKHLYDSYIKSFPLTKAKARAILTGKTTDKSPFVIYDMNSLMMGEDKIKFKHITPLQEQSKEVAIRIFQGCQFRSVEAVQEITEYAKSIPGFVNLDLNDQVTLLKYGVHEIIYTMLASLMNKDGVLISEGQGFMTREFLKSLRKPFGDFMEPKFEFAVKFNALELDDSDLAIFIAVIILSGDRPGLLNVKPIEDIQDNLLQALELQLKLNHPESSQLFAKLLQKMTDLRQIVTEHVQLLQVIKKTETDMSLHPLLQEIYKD
Description: To determine the PPARγ binding affinities of the synthesized compounds, we performed competition experiments using LanthaScreen TR-FRET assays.
Figure 3 Characterization of VSP-51 binding. […] GST-PPARγ LBD and the fluorescent PPARγ ligand Fluormone™ were used at 0.5 nM of concentration, each. Terbium-coated anti-GST antibody was used at 4.95 nM of concentration. (A) LanthaScreen TR-FRET ratios for ligands at 1 and 10 μM of concentrations (n = 2, error bars = SEM). […] Concentrations are presented on a log10 scale (n = 2, error bars = SEM).
The GST-PPARγ LBD was labeled with a terbium-linked antibody and incubated with a fluorescent small molecule pan-PPAR ligand (Fluormone™ Pan-PPAR Green). Excitation of terbium fluorescence at 340 nm results in a time-resolved fluorescence energy transfer (TR-FRET) to bound Fluormone with an emission at 520 nm. Agonist binding was determined as decrease in FRET (ratio of emission at 520 nm to emission from terbium fluorescence at 495 nm) due to the displacement of the fluorescent tracer from the ligand binding domain upon agonist binding. The inhibition constant (ki) for competitor was calculated by applying the Cheng-Prusoff equation as following: […]

Row | SMILES | adipocyte differentiation (Oil-red O staining) ([1]; 3T3-L1 cells) | % Oil Red staining [1] | expression of key adipogenic genes (C/EBPα, aP2, CD36, FASN, LPL, PPARγ), mRNA [2] | total number of adipocytes ([1]; 3T3-L1 cells, VSP-51 added during Rosi treatment) | relative PPARγ binding affinity (reduction of TR-FRET emission ratio) ([3]; 1 and 10 μM compound) | Ki ([3]; calculated by the Cheng-Prusoff equation, tracer 5 nM, kd 2.8 nM) | IC50 ([3]; displacement of Fluormone Pan-PPAR Green, dose-response 0.01 pM - 100 μM, n = 2) | expression level of Adiponectin, mRNA [2] | expression of PTPIB, mRNA [2] | expression of SOCS3, mRNA [2]
1 | CN(CCOc1ccc(CC2SC(=O)NC2=O)cc1)c1ccccn1 (stereo not shown) [Rosi, rosiglitazone, reference compound] | potently stimulated adipocyte differentiation | 85.16% | robustly stimulated | – | – | – | – | – | – | –
2 | O=C(NCc1ccccc1)c1ccc2c(ccn2Cc2ccc(Cl)c(F)c2)c1 [VSP-51] | very few cells were stained | 5.95% | little or no change | clear decrease | highest binding affinity for PPARγ among the synthesized compounds | 0.00806 µM | 0.0225 µM | efficiently increased | remarkably inhibited | remarkably inhibited
